Values after ≈ are worked out from the molar mass of the structure shown. Read-outs that look alike come from different tables or passages of the source. Residues, ends and D or L forms follow the SMILES beside them.
Tests used:
[1] = system: A. baumannii; experiment: microbe, parasite or virus in culture
Method: (§1) Antimicrobial activity of arenicin-3 and its analogs was tested against a panel of bacterial and yeast strains by in vitro broth microdilution (BMD) assay with minimum inhibitory concentration (MIC) determination. Strains were purchased from American Type Culture Collection (ATCC) or obtained from clinical collaborators (full strain profiles provided in Supplementary Data 3). All peptides were prepared in Ringer’s acetate solution, and subsequently diluted fresh in water for each independent assay.
(§2) Assays were performed in Mueller Hinton broth (MHB; BD, Cat. No. 211443) for bacteria, and yeast extract-peptone dextrose (YPD; Sigma-Aldrich, Y1500) for yeast. The concentrations of the peptides and comparator antibiotics/antifungals in the assay wells ranged from either 128 or 64 μg mL^−1, to 0.06 or 0.03 μg mL^−1 as a 12-point dose response plated as a 2-fold dilution series across the wells of the plate in duplicate for each independent biological replicate, using a final cell density of 5 × 10^5 CFU mL^−1 and 2.5 × 10^3 CFU mL^−1 for bacteria and yeast respectively. Final assay volumes were 100 μL per well with MICs determined visually following 18-20 h incubation at 37 °C for bacteria, 24 h incubation at 35 °C for Candida albicans, and 24 h incubation at 35 °C with resazurin addition (0.006%; Sigma-Aldrich, Cat # R7017) for a further 3 h for Cryptococcus neoformans, without shaking. Additional bacterial and yeast susceptibility assays were performed in Cation-Adjusted Mueller Hinton Broth (CAMHB; BD, Cat No. 212322) and Roswell Park Memorial Institute (RPMI) 1640 culture medium (Life Technologies Australia, Cat No. 21870092), respectively, as recommended by CLSI guidelines (M07 11th ed[36] and M27 4th ed[37]). […] Agarose MICs were determined in MHB with 1% agarose (Bioline molecular grade; Cat no: BIO-41025; high purity, high gel strength). All experiments were performed a minimum of six replicates (n ≥ 6).

[2] = system: P. aeruginosa; experiment: microbe, parasite or virus in culture
Method: as §1, §2

[3] = system: E. coli; experiment: microbe, parasite or virus in culture
Method: as §1, §2

[4] = system: C. albicans; experiment: microbe, parasite or virus in culture; settings: 24 h
Method: as §1, §2

[5] = system: K. pneumoniae; experiment: microbe, parasite or virus in culture
Method: as §1, §2

[6] = system: S. aureus; experiment: microbe, parasite or virus in culture
Method: as §1, §2

[7] = system: human erythrocytes (HRBC); format: cell-based
[8] = system: HEK-293 human embryonic kidney cells; experiment: in vitro
Method: (§3) HEK-293 human embryonic kidney cells (ATCC CRL-1573), HepG2 liver hepatocellular carcinoma cells (ATCC HB-8065), and HK-2 human kidney proximal tubule cells (ATCC CRL-2190) cell lines were purchased from ATCC. Cytotoxicity of arenicin-3 variants was determined using the Alamar Blue (resazurin; Sigma-Aldrich, Cat # R7017), with 1% FBS for HK-2 and 10% FBS for HEK-293, and HepG2[40]. Cells were seeded as 2000 cells per well in black wall clear bottom 384-well plates (Corning®, Costar®, Cat # 3712). The cells were incubated for 24 h at 37 °C, 5% CO2. Then peptides were added into each cell containing well. After 24 h incubation, 5 μM resazurin were added per well and incubated at 37 °C for 2 h. Then the fluorescence intensity (FI) was read using a Polarstar® Omega plate reader with excitation/emission 560/590 and CC50 values were determined using Prism 8 following curve fitting and applying the following equation: Percentageviability = (FITEST-FINegative/FIUNTREATED-FINegative)×100.
(§4) Hemolytic activity was measured against isolated human erythrocytes from anonymously donated fresh human blood. Isolated erythrocytes were adjusted to 1 × 10^9 blood cells mL^−1 in phosphate-buffered saline (PBS, pH 7.4), added to the wells of NUNC polypropylene round-bottom 96-well plates (Sigma-Aldrich, Cat # P6866) then up to 300 μg mL^−1 of compound was added per well and incubated for 3 h at 37 °C. Following incubation, samples were centrifuged at 3000 rpm for 20 min, and the supernatants, 100 μL, were carefully collected for measurement. The degree of hemolysis in the samples was determined by measurement of the absorption of the supernatants at 540 nm using the Polarstar-Omega plate reader. 1% Triton-X100 was used as positive control for inducing 100% hemolysis. HC10 and HC50 values were determined using Prism 8 following curve fitting. The use of human blood (sourced from the Australian Red Cross Blood Service) for hemolysis assays was approved by the University of Queensland Institutional Human Research Ethics Committee, Approval Number 2014000031. All in vitro toxicity assays were performed for two independent biological replicates as an 8-point dose response of 3-fold dilution series in triplicate with the highest test concentration of 300 μg mL^−1.

[9] = system: HK-2 human kidney proximal tubule cells; experiment: in vitro
Method: as §3, §4

[10] = system: HepG2 liver hepatocellular carcinoma cells; experiment: in vitro
Method: as §3, §4

[11] = in vitro; settings: human
Method: as §3, §4

[12] = system: E. coli ATCC 25922; experiment: microbe, parasite or virus in culture; format: cell-based, Escherichia coli; settings: ATCC 25922
Method: Assays were performed in Mueller Hinton broth (MHB; BD, Cat. No. 211443) for bacteria, and yeast extract-peptone dextrose (YPD; Sigma-Aldrich, Y1500) for yeast. The concentrations of the peptides and comparator antibiotics/antifungals in the assay wells ranged from either 128 or 64 μg mL^−1, to 0.06 or 0.03 μg mL^−1 as a 12-point dose response plated as a 2-fold dilution series across the wells of the plate in duplicate for each independent biological replicate, using a final cell density of 5 × 10^5 CFU mL^−1 and 2.5 × 10^3 CFU mL^−1 for bacteria and yeast respectively. Final assay volumes were 100 μL per well with MICs determined visually following 18-20 h incubation at 37 °C for bacteria, 24 h incubation at 35 °C for Candida albicans, and 24 h incubation at 35 °C with resazurin addition (0.006%; Sigma-Aldrich, Cat # R7017) for a further 3 h for Cryptococcus neoformans, without shaking. Additional bacterial and yeast susceptibility assays were performed in Cation-Adjusted Mueller Hinton Broth (CAMHB; BD, Cat No. 212322) and Roswell Park Memorial Institute (RPMI) 1640 culture medium (Life Technologies Australia, Cat No. 21870092), respectively, as recommended by CLSI guidelines (M07 11th ed[36] and M27 4th ed[37]). […] However, for yeast it was determined that the YPD media was more reliable and robust between repeats and therefore MICs in this media are reported. […] Agarose MICs were determined in MHB with 1% agarose (Bioline molecular grade; Cat no: BIO-41025; high purity, high gel strength). All experiments were performed a minimum of six replicates (n ≥ 6).

[13] = A. baumannii ATCC 19636 type strain, MHB, mode of 6 replicates
[14] = P. aeruginosa ATCC 27853 control strain, MHB, mode of 6 replicates
[15] = E. coli ATCC 25922 FDA control strain, MHB, mode of 6 independent biological replicates
[16] = K. pneumoniae ATCC 13883 type strain (polymyxin/colistin heteroresistant), MHB, mode of 6 replicates
[17] = S. aureus ATCC 25923 MSSA, MHB, mode of 6 replicates

CC(C)C[C@@H]1NC(=O)CNC(=O)[C@H](CC(N)=O)NC(=O)[C@H](CCCNC(=N)N)NC(=O)[C@H](CCCCN)NC(=O)[C@H](C)NC(=O)[C@@H]2CSSC[C@H](NC(=O)[C@H](C(C)C)NC(=O)[C@H](CCCNC(=N)N)NC1=O)C(=O)N[C@@H](Cc1ccc(O)cc1)C(=O)N[C@@H](CCCNC(=N)N)C(=O)N[C@@H](CCCNC(=N)N)C(=O)N[C@H](C(=O)N[C@@H](CC(N)=O)C(=O)O)CSSC[C@H](NC(=O)[C@H](Cc1ccccc1)NC(=O)CN)C(=O)N[C@@H](Cc1c[nH]c3ccccc13)C(=O)N[C@@H](Cc1ccc(O)cc1)C(=O)N[C@@H](C)C(=O)N2 [NZ17126] (HELM PEPTIDE1{G.F.C.W.Y.A.C.A.K.R.N.G.L.R.V.C.Y.R.R.C.N}$PEPTIDE1,PEPTIDE1,3:R3-20:R3|PEPTIDE1,PEPTIDE1,7:R3-16:R3$$$V2.0)
BMD MIC [1]: 1 µg/mL
BMD MIC [2]: 0.25 µg/mL
BMD MIC [3]: 0.125 µg/mL
BMD MIC [4]: >64 µg/mL
BMD MIC [5]: 0.25 µg/mL
BMD MIC [6]: 32 µg/mL
Heamolysis HC10, Mean [7]: 232 µg/mL
CC50 HEK293 [8]: >300 µg/mL
CC50 HEK293, Mean [8]: >300 µg/mL
CC50 HK2 [9]: >254 µg/mL
CC50 HK2, Mean [9]: >250 µg/mL
CC50 HepG2 [10]: >300 µg/mL
CC50 HepG2, Mean [10]: >300 µg/mL
CC50 at 24 h ([11]; HEK-293 cells): > 300 µg/mL
CC50 at 24 h ([11]; HK-2 cells): > 250 µg/mL
CC50 at 24 h ([11]; HepG2 cells): > 300 µg/mL

CC(C)[C@@H]1NC(=O)[C@H](Cc2ccc(O)cc2)NC(=O)[C@H](Cc2c[nH]c3ccccc23)NC(=O)[C@@H](NC(=O)CN)CSSC[C@@H](C(=O)N[C@@H](CC(N)=O)C(=O)O)NC(=O)[C@H](CCCNC(=N)N)NC(=O)[C@H](CCCNC(=N)N)NC(=O)[C@H](Cc2ccc(O)cc2)NC(=O)[C@@H]2CSSC[C@H](NC1=O)C(=O)N[C@@H](C)C(=O)N[C@@H](CCCNC(=N)N)C(=O)N[C@@H](CCCNC(=N)N)C(=O)N[C@@H](CC(N)=O)C(=O)NCC(=O)N[C@@H](C)C(=O)N[C@@H](CCCNC(=N)N)C(=O)N[C@@H](C(C)C)C(=O)N2 [AB0016] (HELM PEPTIDE1{G.C.W.Y.V.C.A.R.R.N.G.A.R.V.C.Y.R.R.C.N}$PEPTIDE1,PEPTIDE1,2:R3-19:R3|PEPTIDE1,PEPTIDE1,6:R3-15:R3$$$V2.0)
BMD MIC [1, 13]: 1 µg/mL
BMD MIC [2, 14]: 1 µg/mL
BMD MIC [3, 15]: 1 µg/mL
BMD MIC [5, 16]: 2 µg/mL
BMD MIC [6, 17]: >64 µg/mL

CC(C)[C@@H]1NC(=O)CNC(=O)[C@H](CC(N)=O)NC(=O)[C@H](CCCNC(=N)N)NC(=O)[C@H](Cc2ccc(O)cc2)NC(=O)[C@H](C(C)C)NC(=O)[C@@H]2CSSC[C@H](NC(=O)[C@H](C(C)C)NC(=O)[C@H](CCCNC(=N)N)NC1=O)C(=O)N[C@@H](Cc1ccc(O)cc1)C(=O)N[C@@H](CCCNC(=N)N)C(=O)N[C@@H](CCCNC(=N)N)C(=O)N[C@H](C(=O)N[C@@H](CC(N)=O)C(=O)O)CSSC[C@H](NC(=O)[C@H](Cc1ccccc1)NC(=O)CN)C(=O)N[C@@H](Cc1c[nH]c3ccccc13)C(=O)N[C@@H](CCCNC(=N)N)C(=O)N[C@@H](C)C(=O)N2 [NZ17230] (HELM PEPTIDE1{G.F.C.W.R.A.C.V.Y.R.N.G.V.R.V.C.Y.R.R.C.N}$PEPTIDE1,PEPTIDE1,3:R3-20:R3|PEPTIDE1,PEPTIDE1,7:R3-16:R3$$$V2.0)
BMD MIC [1]: 0.5 µg/mL
BMD MIC [2]: 0.25 µg/mL
BMD MIC [4]: 64 µg/mL
BMD MIC [5]: 0.25 µg/mL
BMD MIC [6]: 64 µg/mL
Heamolysis HC10, Mean [7]: >300 µg/mL
Heamolysis HC10 ([7]; red cells of human, 3 h): >300 µg/mL
MIC, MHB [12]: 0.25 µg/mL (≈ 0.097 µM)
CC50 HEK293, Mean [8]: 223 µg/mL (≈ 86.5 µM)
CC50 HK2 [9]: >258 µg/mL
CC50 HK2, Mean [9]: >250 µg/mL
CC50 HepG2 [10]: >300 µg/mL
CC50 HepG2, Mean [10]: >300 µg/mL
CC50 at 24 h ([11]; HEK-293 cells): 223 µg/mL (≈ 86.5 µM)
CC50 at 24 h ([11]; HK-2 cells): > 250 µg/mL
CC50 at 24 h ([11]; HepG2 cells): > 300 µg/mL

CC(C)[C@@H]1NC(=O)[C@H](Cc2ccc(O)cc2)NC(=O)[C@H](Cc2c[nH]c3ccccc23)NC(=O)[C@@H](NC(=O)[C@@H](N)Cc2ccccc2)CSSC[C@@H](C(=O)N[C@@H](CC(N)=O)C(=O)O)NC(=O)[C@H](CCCNC(=N)N)NC(=O)[C@H](CCCNC(=N)N)NC(=O)[C@H](Cc2ccc(O)cc2)NC(=O)[C@@H]2CSSC[C@H](NC1=O)C(=O)N[C@@H](C)C(=O)N[C@@H](CCCNC(=N)N)C(=O)N[C@@H](CCCNC(=N)N)C(=O)N[C@@H](CC(N)=O)C(=O)NCC(=O)N[C@@H](C)C(=O)N[C@@H](CCCNC(=N)N)C(=O)N[C@@H](C(C)C)C(=O)N2 [AB0015] (HELM PEPTIDE1{F.C.W.Y.V.C.A.R.R.N.G.A.R.V.C.Y.R.R.C.N}$PEPTIDE1,PEPTIDE1,2:R3-19:R3|PEPTIDE1,PEPTIDE1,6:R3-15:R3$$$V2.0)
BMD MIC [1, 13]: 0.5 µg/mL
BMD MIC [2, 14]: 1 µg/mL
BMD MIC [3, 15]: 0.5 µg/mL
BMD MIC [5, 16]: 2 µg/mL
BMD MIC [6, 17]: >64 µg/mL

— PMC7311426, “An amphipathic peptide with antibiotic activity against multidrug-resistant Gram-negative bacteria” (Nature Communications, 2020)
